Laboratory results published in paper PMC4990478 (Nature chemical biology, 2016).
Each block holds one compound with its values, some of them ahead of it. Where a SMILES comes first, the peptide text is derived from it. [ ]: non-standard residue; d: D form. The star is where a group is joined. ξ: configuration not given here. Aoe(9ξ) = N[C@@H](CCCCCC(=O)C1CO1)C(=O)O; AMC = Cc1cc(=O)oc2cc(N*)ccc12; dPip = O=C(O)[C@H]1CCCCN1

How the values were obtained:
[1] = tested on: maize HD1-B (a class I HDAC); conditions: cited from earlier work
HD1-A (a class II HDAC) = conditions: cited from earlier work
zCD1 = target: T1, zCD1 (Danio rerio, UniProt F8W4B7); assay: Steady-state kinetics, fluorogenic substrates; format: biochemical
T1 sequence (F8W4B7 60-419): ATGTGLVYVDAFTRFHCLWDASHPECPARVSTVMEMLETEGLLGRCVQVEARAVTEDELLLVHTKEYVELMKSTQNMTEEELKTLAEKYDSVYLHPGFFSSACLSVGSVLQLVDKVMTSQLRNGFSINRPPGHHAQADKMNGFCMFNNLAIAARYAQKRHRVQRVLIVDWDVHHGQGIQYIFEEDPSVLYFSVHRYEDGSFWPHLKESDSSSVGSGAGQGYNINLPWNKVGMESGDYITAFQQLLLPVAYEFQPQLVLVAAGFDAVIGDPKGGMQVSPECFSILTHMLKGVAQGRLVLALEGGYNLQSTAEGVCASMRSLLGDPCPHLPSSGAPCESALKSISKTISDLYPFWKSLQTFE

HDAC1 = conditions: cited from earlier work
HDAC6 = conditions: cited from earlier work

Compound: C[C@@H]1NC(=O)[C@H]2CCCN2C(=O)[C@H](CCCCCC(=O)[C@@H]2CO2)NC(=O)[C@@H](C)NC1=O [HC toxin, cyclo-(L-Ala-D-Ala-L-Aoe-D-Pro)]
mode of inhibition [1]: irreversible inhibition
mode of inhibition (HD1-A (a class II HDAC)): reversible inhibition

kcat/KM reduced, zCD1 compared with zCD2 (zCD1): 7 fold
Compound: CC(=O)NCCCC[C@H](NC(=O)CNC(=O)[C@H](CCCNC(=N)N)NC(C)=O)C(=O)Nc1ccc2c(C)cc(=O)oc2c1 [Substrate 8, Ac-Arg-Gly-Lys(Ac)-AMC] (Ac-Arg-Gly-Lys(Ac)-{AMC})

Compound: O=C(CCCCC[C@@H]1NC(=O)[C@H]2CCCCN2C(=O)[C@H](Cc2ccccc2)NC(=O)[C@H](Cc2ccccc2)NC1=O)C1CO1 (some centres unmarked) [trapoxin] (cyclo(FF[dPip][Aoe(9ξ)]))
mode of inhibition (HDAC1): potent irreversible inhibitor
mode of inhibition (HDAC6): reversible inhibitor
